# Data from publication PMC6864482, “Novel C7-Substituted Coumarins as Selective Monoamine Oxidase Inhibitors: Discovery, Synthesis and Theoretical Simulation” (Molecules, 2019).
# How the values were obtained:
# hMAO-A = biological target: T1, hMAO-A (Homo sapiens, UniProt P21397); settings: previously identified BRS-3D hits, cited from earlier work
# T1 sequence (P21397 1-527): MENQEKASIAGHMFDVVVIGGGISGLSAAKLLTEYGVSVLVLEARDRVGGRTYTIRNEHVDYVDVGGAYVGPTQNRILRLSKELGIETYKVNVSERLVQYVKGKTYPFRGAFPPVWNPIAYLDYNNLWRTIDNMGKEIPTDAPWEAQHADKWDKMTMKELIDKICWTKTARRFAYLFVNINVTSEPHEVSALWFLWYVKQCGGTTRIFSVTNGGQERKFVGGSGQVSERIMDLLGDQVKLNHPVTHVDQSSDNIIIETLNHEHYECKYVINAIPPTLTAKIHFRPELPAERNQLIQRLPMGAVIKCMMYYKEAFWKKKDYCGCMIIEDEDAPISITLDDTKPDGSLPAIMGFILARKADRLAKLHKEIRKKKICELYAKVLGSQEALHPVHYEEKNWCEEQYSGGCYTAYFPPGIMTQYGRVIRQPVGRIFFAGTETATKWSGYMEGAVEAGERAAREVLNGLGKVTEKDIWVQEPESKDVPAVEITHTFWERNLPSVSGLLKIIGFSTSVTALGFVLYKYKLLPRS
# hMAO-B = biological target: T2, hMAO-B (Homo sapiens, UniProt P27338); settings: previously identified BRS-3D hits, cited from earlier work
# T2 sequence (P27338 1-520): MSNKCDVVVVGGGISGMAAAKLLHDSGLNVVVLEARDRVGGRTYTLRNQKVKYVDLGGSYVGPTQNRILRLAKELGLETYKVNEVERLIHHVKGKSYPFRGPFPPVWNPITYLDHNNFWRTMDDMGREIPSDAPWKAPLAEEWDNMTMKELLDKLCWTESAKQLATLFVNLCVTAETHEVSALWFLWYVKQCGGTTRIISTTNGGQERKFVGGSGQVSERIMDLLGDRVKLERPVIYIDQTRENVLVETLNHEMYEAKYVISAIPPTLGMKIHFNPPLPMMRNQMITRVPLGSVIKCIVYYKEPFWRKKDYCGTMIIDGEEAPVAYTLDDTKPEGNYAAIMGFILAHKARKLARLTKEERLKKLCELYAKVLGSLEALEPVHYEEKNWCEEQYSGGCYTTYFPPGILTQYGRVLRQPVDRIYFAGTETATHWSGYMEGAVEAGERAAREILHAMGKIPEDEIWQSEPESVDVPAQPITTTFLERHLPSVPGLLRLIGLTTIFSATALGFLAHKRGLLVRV
# [1] = pIC50 = −log(IC50), listed as M43 (7a)
smiles,measurement,setting,value
"Cc1cc(=O)oc2cc(Oc3nnc(-c4ccccc4)s3)ccc12 [M43, 4-Methyl-7-((5-phenyl-1,3,4-thiadiazol-2-yl)oxy)-2H-chromen-2-one]",melting point,,124 to 125 °C
same,MAO-A pIC50,hMAO-A; [1],6.8
same,IC50,hMAO-A; read-out: MAO-A IC50,160 nM
same,MAO-B Avg. Inh% at 10 uM,hMAO-B; 10 μM,96%
same,MAO-B pIC50,hMAO-B; [1],6.4
same,IC50,hMAO-B; read-out: MAO-B IC50,360 nM
